Experimental data as given in ChEMBL document CHEMBL1125916 (1991).

Experiment: In vitro cytotoxicity in BALB/c3T3 mouse embryo fibroblasts.
Settings: BALB/c3T3, read-out: LC50

`O=P1(N(CCCl)CCCl)NCCCO1` (stereo unspecified) [CYCLOPHOSPHAMIDE ANHYDROUS] gave a CC50 of 37.6 µM.
